The record followed here is US20260132132A1, “3A,4,5,6-TETRAHYDRO-1 H-PYRAZOLO[3,4-C]PYRIDIN-7(7AH)-ONE DERIVATIVES AS FACTOR XIIA INHIBITORS” (KALVISTA PHARMACEUTICALS LIMITED, priority 2022, published 2026).

Where only a bound is given, the exact number is not on record here.

Series [1] concerns the target T1, Human Factor XIIa (hFXIIa) (Homo sapiens, UniProt P00748).
T1 construct: purchased Enzyme Research Laboratories
T1 sequence (P00748 373-615 limits assumed): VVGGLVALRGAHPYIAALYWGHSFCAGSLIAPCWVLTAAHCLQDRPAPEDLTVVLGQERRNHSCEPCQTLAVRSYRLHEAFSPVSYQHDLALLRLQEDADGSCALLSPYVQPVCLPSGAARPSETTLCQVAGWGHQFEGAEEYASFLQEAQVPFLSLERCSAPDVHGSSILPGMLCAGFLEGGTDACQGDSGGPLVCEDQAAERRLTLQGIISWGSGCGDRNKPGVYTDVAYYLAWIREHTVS
T1 sequence (P00748 20-372 partner limits assumed): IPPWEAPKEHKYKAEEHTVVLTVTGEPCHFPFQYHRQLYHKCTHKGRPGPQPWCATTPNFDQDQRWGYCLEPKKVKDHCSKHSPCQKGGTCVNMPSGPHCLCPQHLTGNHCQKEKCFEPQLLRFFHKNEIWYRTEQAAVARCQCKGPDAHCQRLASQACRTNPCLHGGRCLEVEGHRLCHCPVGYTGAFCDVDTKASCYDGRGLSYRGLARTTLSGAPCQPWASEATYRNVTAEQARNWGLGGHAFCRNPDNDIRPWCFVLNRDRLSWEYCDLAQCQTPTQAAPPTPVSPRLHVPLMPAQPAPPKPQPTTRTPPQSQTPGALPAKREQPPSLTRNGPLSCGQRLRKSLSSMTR
The series is described as follows: Determination of Human Factor XIIa (hFXIIa) inhibition, fluorogenic substrate IC50 assay. In kind it is biochemical. As to conditions: fluorogenic substrate H-DPro-Phe-Arg-AFC at Km, 25° C., read-out: Human FXIIa IC50. As to the method: Determination of Human Factor XIIa (hFXIIa) inhibition
The Km for the cleavage of the substrate by hFXIIa was determined by standard transformation of the Michaelis-Menten equation, with subsequent inhibition assays performed at substrate Km concentration.

A short description of series [2]: Pharmacokinetics following a single intravenous dose and a single oral dose in rats. The series is classed as in vivo. To be noted: rat, male Sprague-Dawley rats, single iv dose (nominal 1 mg/kg) and single oral dose (nominal 5 mg/kg) in 10% DMSO/10% Cremophor EL/80% SWFI, plasma by LCMS, Phoenix WinNonlin. As to the method:
Pharmacokinetic studies of the compounds in Table 10 were performed to assess the pharmacokinetics following a single intravenous dose and a single oral dose in male Sprague-Dawley rats. Two rats were given a single intravenous dose of 1 ml/kg of a nominal 1 mg/ml (1 mg/kg) composition of test compound in 10% DMSO/10% Cremophor EL/80% SWFI vehicle. Two rats were given a single oral dose of 5 mL/kg of a nominal 1 mg/ml (5 mg/kg) composition of test compound in 10% DMSO/10% Cremophor EL/80% SWFI vehicle.
Following intravenous dosing, blood samples were collected over a period of 12 h. Sample times were 2, 5, 15 and 30 min then 1, 2, 4, 6, and 12 h. Following oral dosing, blood samples were collected over a period of 24 h. Sample times were 5, 15 and 30 min then 1, 2, 4, 6, 8, 12 and 24 h.
Following collection, blood samples were centrifuged and the plasma fraction analysed for concentration of test compound by LCMS. Oral bioavailability and half-life calculations from these studies were obtained using Phoenix WinNonlin (v8.0) and are shown below: […]

In the next series the target is FXa (Homo sapiens, UniProt P00742). The series is described as follows: Related protease inhibition: FXa, fluorogenic substrate. The series is classed as biochemical. As to conditions: fluorogenic substrate at Km, 25° C., H1-H3 = % activity at 40 μM; for activity at 40 µM: read-out: IC50 (human FXa) nM. The procedure:
(§1) Human serine protease enzyme Plasma Kallikrein, KLK1, FXa, Plasmin, Thrombin and Trypsin were assayed for enzymatic activity using an appropriate fluorogenic substrate at Km concentration, FXIa at fixed substrate concentration of 100 μM and various concentrations of the test compound.

The target in a further series is Thrombin (Homo sapiens, UniProt P00734). The series is described as follows: Related protease inhibition: Thrombin, fluorogenic substrate. The series is classed as biochemical. To be noted: fluorogenic substrate at Km, 25° C., H1-H3 = % activity at 40 μM; for activity at 40 µM: read-out: IC50 (human thrombin) nM. The procedure:
as §1

FXa, sequence (P00742 235-488 limits assumed): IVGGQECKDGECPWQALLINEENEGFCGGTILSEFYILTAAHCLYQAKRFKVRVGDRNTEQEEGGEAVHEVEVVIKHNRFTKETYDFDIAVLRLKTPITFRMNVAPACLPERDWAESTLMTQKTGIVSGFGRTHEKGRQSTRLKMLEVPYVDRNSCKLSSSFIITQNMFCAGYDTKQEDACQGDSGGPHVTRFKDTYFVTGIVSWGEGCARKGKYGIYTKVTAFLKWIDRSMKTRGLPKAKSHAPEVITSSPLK
FXa, sequence (P00742 41-179 partner limits assumed): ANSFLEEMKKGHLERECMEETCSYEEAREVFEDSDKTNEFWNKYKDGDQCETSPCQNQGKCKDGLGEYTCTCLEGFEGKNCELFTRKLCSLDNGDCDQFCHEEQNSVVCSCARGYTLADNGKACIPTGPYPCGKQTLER

As usually defined, the IC50 is the concentration that gives 50% inhibition. The term bioavailability denotes dose-corrected exposure relative to a reference, in per cent. A word on the half-life: it is the time needed for the level to fall by half in the phase considered. Higher therefore signals slow decline. With `Cc1cc(CNC(=O)c2nn(-c3cccc(Cl)c3)c3c2CCN(c2ccc4c(c2)C(=O)N(CCO)CC4)C3=O)nn1C` [Example 1222, 1-(3-chlorophenyl)-N-((1,5-dimethyl-1H-pyrazol-3-yl)methyl)-6-(2-(2-hydroxyethyl)-1-oxo-1,2,3,4-tetrahydroisoquinolin-7-yl)-7-oxo-4,5,6,7-tetrahydro-1H-pyrazolo[3,4-c]pyridine-3-carboxamide], in series [1], the IC50 lay in the range of 10 to 100 nM. For the same molecule, in series [2] (read-out: F % (oral bioavailability)), the bioavailability came to 5%. The half-life in series [2] (route for T½ not stated) stood at 35 min.

For `CN1CCc2ccc(N3CCc4c(C(=O)N[C@@H](CO)C5CC5)nn(-c5cccc(Cl)c5F)c4C3=O)cc2C1=O` [Example 2043, (R)-1-(3-chloro-2-fluorophenyl)-N-(1-cyclopropyl-2-hydroxyethyl)-6-(2-methyl-1-oxo-1,2,3,4-tetrahydroisoquinolin-7-yl)-7-oxo-4,5,6,7-tetrahydro-1H-pyrazolo[3,4-c]pyridine-3-carboxamide], in series [1], the IC50 lay in the range of 10 to 100 nM. Moreover, the activity at 40 µM at FXa and at Thrombin was 20 to 80% each time.

On to `Cc1ccc(CNC(=O)c2nn(-c3cccc(Cl)c3F)c3c2CCN(c2ccc4c(c2)C(=O)N(C)CC4)C3=O)cn1` [Example 2044, 1-(3-chloro-2-fluorophenyl)-6-(2-methyl-1-oxo-1,2,3,4-tetrahydroisoquinolin-7-yl)-N-((6-methylpyridin-3-yl)methyl)-7-oxo-4,5,6,7-tetrahydro-1H-pyrazolo[3,4-c]pyridine-3-carboxamide], for which the half-inhibitory concentration (IC50) in series [1] was 10 to 100 nM. The activity at 40 µM at FXa was more than 80%; at Thrombin, 20 to 80%.

`CCNC(=O)c1nn(-c2cc(C)cs2)c2c1CCN(c1ccc3c(c1)C(=O)N(C)CC3)C2=O` [Example 2045, N-ethyl-6-(2-methyl-1-oxo-1,2,3,4-tetrahydroisoquinolin-7-yl)-1-(4-methylthiophen-2-yl)-7-oxo-4,5,6,7-tetrahydro-1H-pyrazolo[3,4-c]pyridine-3-carboxamide]: in series [1], the IC50 lay within 3000 to 10000 nM. Also, the activity at 40 µM on FXa and at Thrombin was 20 to 80% in each case.

For the molecule `CN1CCOc2ccc(N3CCc4c(C(=O)NCC5CC5)nn(-c5cccc(Cl)c5F)c4C3=O)cc2C1=O` [Example 2046, 1-(3-chloro-2-fluorophenyl)-N-(cyclopropylmethyl)-6-(4-methyl-5-oxo-2,3,4,5-tetrahydrobenzo[f][1,4]oxazepin-7-yl)-7-oxo-4,5,6,7-tetrahydro-1H-pyrazolo[3,4-c]pyridine-3-carboxamide], the concentration for half-maximal inhibition (IC50) in series [1] lay in the range of 10 to 100 nM. The activity at 40 µM on FXa and at Thrombin was more than 80% in each case.

`CN1CCc2ccc(N3CCc4cnn(-c5cc(Cl)cc(CN)c5)c4C3=O)cc2C1=O` [Example 2047, 7-(1-(3-(aminomethyl)-5-chlorophenyl)-7-oxo-1,4,5,7-tetrahydro-6H-pyrazolo[3,4-c]pyridin-6-yl)-2-methyl-3,4-dihydroisoquinolin-1(2H)-one]: in series [1], the concentration for half-maximal inhibition (IC50) lay in the range of 10000 to 40000 nM. Also, the activity at 40 µM on FXa and at Thrombin was more than 80% throughout.

Take `CN1CCOc2ccc(N3CCc4c(C(=O)NC56CC(O)(C5)C6)nn(-c5cccc(Cl)c5F)c4C3=O)cc2C1=O` [Example 2050, 1-(3-chloro-2-fluorophenyl)-N-(3-hydroxybicyclo[1.1.1]pentan-1-yl)-6-(4-methyl-5-oxo-2,3,4,5-tetrahydrobenzo[f][1,4]oxazepin-7-yl)-7-oxo-4,5,6,7-tetrahydro-1H-pyrazolo[3,4-c]pyridine-3-carboxamide]: the concentration for half-maximal inhibition (IC50) in series [1] fell in the range of 10 to 100 nM. The activity at 40 µM on FXa and on Thrombin was 20 to 80% each time.

Turning to `CCNC(=O)c1nn(-c2cc(C)cc(Cl)c2)c2c1CCN(c1ccc3c(c1)C(=O)N(C)CC3)C2=O` [Example 2051, 1-(3-chloro-5-methylphenyl)-N-ethyl-6-(2-methyl-1-oxo-1,2,3,4-tetrahydroisoquinolin-7-yl)-7-oxo-4,5,6,7-tetrahydro-1H-pyrazolo[3,4-c]pyridine-3-carboxamide], the IC50 in series [1] was 300 to 1000 nM. In addition, the activity at 40 µM at FXa was 20 to 80%; on Thrombin it was more than 80%.

With `CCNC(=O)c1nn(-c2cccc(Cl)c2CO)c2c1CCN(c1ccc3c(c1)C(=O)N(C)CC3)C2=O` [Example 2052, 1-(3-chloro-2-(hydroxymethyl)phenyl)-N-ethyl-6-(2-methyl-1-oxo-1,2,3,4-tetrahydroisoquinolin-7-yl)-7-oxo-4,5,6,7-tetrahydro-1H-pyrazolo[3,4-c]pyridine-3-carboxamide], the 50% inhibitory concentration (IC50) in series [1] fell in the range of 10000 to 40000 nM. Moreover, the activity at 40 µM on FXa and on Thrombin was more than 80% throughout.

For `CN1CCOc2ccc(N3CCc4c(C(=O)N[C@H](CO)C5CC5)nn(-c5cccc(Cl)c5F)c4C3=O)cc2C1=O` [Example 2053, (S)-1-(3-chloro-2-fluorophenyl)-N-(1-cyclopropyl-2-hydroxyethyl)-6-(4-methyl-5-oxo-2,3,4,5-tetrahydrobenzo[f][1,4]oxazepin-7-yl)-7-oxo-4,5,6,7-tetrahydro-1H-pyrazolo[3,4-c]pyridine-3-carboxamide], in series [1], the half-maximal inhibitory concentration (IC50) lay in the range of 10 to 100 nM. The activity at 40 µM is 20 to 80% on FXa and more than 80% on Thrombin.

In the case of `CCNC(=O)c1nn(-c2ccc(O)c(Cl)c2)c2c1CCN(c1ccc3c(c1)C(=O)N(C)CC3)C2=O` [Example 2054, 1-(3-chloro-4-hydroxyphenyl)-N-ethyl-6-(2-methyl-1-oxo-1,2,3,4-tetrahydroisoquinolin-7-yl)-7-oxo-4,5,6,7-tetrahydro-1H-pyrazolo[3,4-c]pyridine-3-carboxamide], the 50% inhibitory concentration (IC50) in series [1] lay in the range of 3000 to 10000 nM. In addition, the activity at 40 µM on FXa and at Thrombin was more than 80% throughout.

As for `CN1CCc2ccc(N3CCc4c(C(=O)NCC(=O)O)nn(-c5cc(Cl)cc(CN)c5)c4C3=O)cc2C1=O` [Example 2056, (1-(3-(aminomethyl)-5-chlorophenyl)-6-(2-methyl-1-oxo-1,2,3,4-tetrahydroisoquinolin-7-yl)-7-oxo-4,5,6,7-tetrahydro-1H-pyrazolo[3,4-c]pyridine-3-carbonyl)glycine], in series [1], the IC50 is 10 to 100 nM. The values for the activity at 40 µM on FXa and on Thrombin were 20 to 80% and more than 80%, respectively.

As for `CCNC(=O)c1nn(-c2ccc(Cl)c(C)c2)c2c1CCN(c1ccc3c(c1)C(=O)N(C)CC3)C2=O` [Example 2057, 1-(4-chloro-3-methylphenyl)-N-ethyl-6-(2-methyl-1-oxo-1,2,3,4-tetrahydroisoquinolin-7-yl)-7-oxo-4,5,6,7-tetrahydro-1H-pyrazolo[3,4-c]pyridine-3-carboxamide], the IC50 in series [1] was in the range of 1000 to 3000 nM. The activity at 40 µM on FXa and at Thrombin was 20 to 80% each time.

In the case of `CCNC(=O)c1nn(-c2cc(Cl)cc(COC)c2)c2c1CCN(c1ccc3c(c1)C(=O)N(C)CC3)C2=O` [Example 2058, 1-(3-chloro-5-(methoxymethyl)phenyl)-N-ethyl-6-(2-methyl-1-oxo-1,2,3,4-tetrahydroisoquinolin-7-yl)-7-oxo-4,5,6,7-tetrahydro-1H-pyrazolo[3,4-c]pyridine-3-carboxamide], the IC50 in series [1] is 3000 to 10000 nM; against FXa, more than 40000 nM; against Thrombin, more than 40000 nM.
